Measurements taken from publication PMC11821233, “Impact of Bioactive Ingredients on the Fecal Excretion of Aflatoxin B1 and Ochratoxin A in Wistar Rats” (Molecules, 2025).
Several values for one entry are separate records, joined by “and”; a condition that tells them apart may be missing. Equal values may be shown once. Read-outs that look alike come from different tables or passages of the source.

Experiments:
[1] = not given; remark: listed apart in the source
[2] = females, feces collected in the fourth week of the in vivo study, label = diet group, LOD 0.1 µg/kg
[3] = males, feces collected in the fourth week of the in vivo study, label = diet group, LOD 0.1 µg/kg

| Molecule | Concentration of OTA in rat feces [2] [µg mycotoxin/kg dry feces] | Concentration of OTA in rat feces [3] [µg mycotoxin/kg dry feces] | Concentration of AFB1 in rat feces [1, 2] | Concentration of AFB1 in rat feces [1, 3] | Concentration of OTA in rat feces (rat, in vivo) | Concentration of AFB1 in rat feces ([1]; rat, in vivo) |
| --- | --- | --- | --- | --- | --- | --- |
| C[C@@H]1Cc2c(Cl)cc(C(=O)N[C@@H](Cc3ccccc3)C(=O)O)c(O)c2C(=O)O1 [OTA, ochratoxin A] | 933 ± 512 | 1729 ± 712 | <LOD | <LOD |  |  |
| aflatoxin B1 [AFB1] |  |  |  |  | <LOD | 52 ± 61 µg mycotoxin/kg dry feces and 91 ± 77 µg mycotoxin/kg dry feces |
